Series [1] is described as follows: Chemical stability assessment (UHPLC-UV purity loss on storage in solution). In kind it is physicochemical. The note with it: Chemical stability buffer system A: 20 mM phosphate buffer pH 7.4; ~300 μM. Summed up: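 Peptides dissolved at ~300 μM (purity-corrected) in 20 mM phosphate pH 7.4, or 8 mM phosphate pH 7.4 with 14 mg/ml propylene glycol and 5.5 mg/ml phenol; filtered, stored 28 days at 5 and 40 °C. Supernatant analysed by UHPLC-UV; stability expressed as relative purity loss.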

The nature of series [2]: Solubility assessment (UHPLC-UV of supernatant, target 10 mg/ml). In kind it is physicochemical. The note with it: for Soluble amount: pH 7.4. Summed up: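 Peptides at 10 mg/ml (purity-corrected) in 100 mM phosphate pH 7.4, optionally with 2.7 mg/ml m-cresol; gentle agitation 1 h, then 5° C. overnight (24 h). Supernatant after 15 min centrifugation at 2500 RCF quantified by UHPLC-UV, with sequence-based extinction coefficients.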

In series [3] the target is human GLP-1 receptor (hGLP-1R) (Homo sapiens, UniProt P43220). As to the kind of experiment: In vitro cellular cAMP assay for GLP-1 receptor efficacy (HEK-293 cell line over-expressing receptor). In kind it is cell-based. The note with it: HEK-293, 0.1% BSA. For orientation: Changes in cAMP serve as a functional read-out for many G protein-coupled receptors.
Series [4] addresses T1, human GIP receptor (hGIPR) (Homo sapiens, UniProt P48546).
T1 sequence (P48546 22-466): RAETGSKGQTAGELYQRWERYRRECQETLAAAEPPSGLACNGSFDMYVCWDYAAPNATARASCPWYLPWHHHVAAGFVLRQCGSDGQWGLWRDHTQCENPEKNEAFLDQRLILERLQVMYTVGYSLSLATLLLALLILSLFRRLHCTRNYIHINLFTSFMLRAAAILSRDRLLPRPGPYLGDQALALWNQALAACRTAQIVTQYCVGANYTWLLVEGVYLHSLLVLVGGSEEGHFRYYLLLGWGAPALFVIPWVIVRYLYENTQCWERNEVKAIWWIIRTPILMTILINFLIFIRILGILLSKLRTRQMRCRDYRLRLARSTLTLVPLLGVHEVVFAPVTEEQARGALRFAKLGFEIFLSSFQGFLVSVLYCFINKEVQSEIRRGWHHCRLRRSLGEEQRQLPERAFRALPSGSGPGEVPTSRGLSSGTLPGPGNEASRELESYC
As to the kind of experiment: In vitro cellular cAMP assay for GIP receptor efficacy (HEK-293 cell line over-expressing receptor). The class given is cell-based. The note with it: EC50 hGIPR 0.1% BSA, HEK-293, 0.1% BSA.

Series [5] can be described thus: Pharmacokinetic evaluation in mice. The class given is in vivo, female C57Bl/6 mice. The note with it: female, C57Bl/6, mouse, in vivo. How it is done: (§1) Compounds were administered in a suitable buffer system, e.g. PBS buffer solution at pH7.4 or DPBS solution at concentrations of 0.05, 0.1, 0.5 or 1 mg/ml depending on dose, species and administration volume. Female C57Bl/6 mice were dosed 0.25 mg/kg, 0.5 mg/kg or 1 mg/kg intravenously (i.v.) or subcutaneously (s.c.). The mice were sacrificed, and blood samples were collected after 0.08, 0.25, 0.5, 1, 2, 4, 8, 24, 32, and 48 h post i.v. application and 0.25, 0.5, 1, 2, 4, 8, 24, 32, and 48 h post s.c. application, respectively. Plasma samples were analysed after protein precipitation via liquid chromatography mass spectrometry (LC/MS). PK parameters and half-life were calculated using Phoenix-WinNonlin 8.1 using a non-compartmental model and linear trapezoidal interpolation calculation. Pharmacokinetic profiles were determined as described in Methods.

A short description of series [6]: Pharmacokinetic evaluation in rats. The note with it: male, SD, rat, in vivo. In kind it is in vivo. The protocol: as §1, with “Male SD rats” for “Female C57Bl/6 mice”, “Blood” for “The mice were sacrificed, and blood”

Each structure is given as a SMILES string. Numbered stars: 1 amine (or outer) side, 2 acyl side, 3 side chain; on linkers, the order of the positions; unused ones are H or OH. Square brackets hold non-standard residues; d marks the D form. Side chains are listed from the residue outwards. Peptide text beside a SMILES is read from it. * marks the point of attachment. C18 diacid = O=C(O)CCCCCCCCCCCCCCCCC(=O)*; γGlu = O=C(O)[C@H](CCC(=O)[*:2])N[*:1]; AEEA = NCCOCCOCC(=O)O; Aib = CC(C)(N)C(=O)O Some results are limits rather than exact numbers.

Chain of human GLP-1 receptor (hGLP-1R) (P43220 24-463): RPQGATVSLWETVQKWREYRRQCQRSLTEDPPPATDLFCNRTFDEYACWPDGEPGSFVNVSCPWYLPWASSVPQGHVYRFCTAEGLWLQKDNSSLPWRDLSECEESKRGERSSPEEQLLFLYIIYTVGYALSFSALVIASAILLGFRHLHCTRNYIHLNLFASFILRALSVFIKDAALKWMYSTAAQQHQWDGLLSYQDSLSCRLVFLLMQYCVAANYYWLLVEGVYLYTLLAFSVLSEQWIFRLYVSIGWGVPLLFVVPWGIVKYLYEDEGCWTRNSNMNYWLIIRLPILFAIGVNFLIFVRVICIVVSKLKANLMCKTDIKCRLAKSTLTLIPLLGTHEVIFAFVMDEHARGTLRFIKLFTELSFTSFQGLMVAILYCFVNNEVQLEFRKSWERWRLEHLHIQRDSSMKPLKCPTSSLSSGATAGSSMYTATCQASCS

For orientation: solubility means how much of the substance goes into solution per volume. Lower therefore signals a poorly soluble substance. What is called EC50 is the concentration at which the effect is half-maximal. Higher therefore signals a need for much substance. With `CC[C@H](C)[C@H](NC(=O)[C@H](Cc1ccccc1)NC(=O)[C@H](CCC(=O)O)NC(=O)[C@H](CCC(=O)O)NC(=O)[C@H](CCC(N)=O)NC(=O)[C@H](Cc1c[nH]cn1)NC(=O)[C@@H](NC(=O)[C@H](CCCNC(=N)N)NC(=O)[C@H](CC(=O)O)NC(=O)[C@H](CCCCNC(=O)COCCOCCNC(=O)COCCOCCNC(=O)CC[C@H](NC(=O)CCCCCCCCCCCCCCCCC(=O)O)C(=O)O)NC(=O)C(C)(C)NC(=O)[C@@H](NC(=O)[C@H](CO)NC(=O)[C@H](CC(C)C)NC(=O)[C@H](CC(=O)O)NC(=O)[C@H](CO)NC(=O)[C@@H](NC(=O)[C@@](C)(CC)NC(=O)[C@@H](NC(=O)CNC(=O)[C@H](CCC(=O)O)NC(=O)C(C)(C)NC(=O)[C@@H](N)Cc1ccc(O)cc1)[C@@H](C)O)[C@@H](C)CC)[C@@H](C)CC)[C@@H](C)CC)C(=O)N[C@@H](CCC(=O)O)C(=O)N[C@@H](Cc1c[nH]c2ccccc12)C(=O)N[C@@H](CC(C)C)C(=O)N[C@@H](CC(C)C)C(=O)N[C@@H](C)C(=O)N[C@@H](CCC(N)=O)C(=O)N[C@@H](CCCNC(=N)N)C(=O)NCC(N)=O` [SEQ ID NO: 15, H2N-Y-Aib-E-G-T-Iva-I-S-D-L-S-I-Aib-K[{AEEA}2-gGlu-C18OH]-D-R-I-H-Q-E-E-F-I-E-W-L-L-A-Q-R-G-NH2], the “Relative purity loss over 28 days at 40° C.” value (“Relative purity loss” for short) in series [1] turned out to be 6.5%. In series [2], this compound displayed a Soluble amount of 8.5 mg/mL. In series [2] (pH 7.4, Soluble amount), this compound returned a solubility greater than 9500 µg/mL. The EC50 is greater than 10 nM in series [3] and 0.0216 nM in series [4].
The term AUC(0-t) denotes the area under the concentration-time curve up to a stated or last time point. A low value points to less exposure. For orientation: Cmax means the peak of the concentration-time curve. By clearance is commonly meant the rate of elimination divided by the concentration. The term half-life denotes the time in which the quantity being followed falls by half. A low value points to fast loss. As usually defined, the bioavailability is the share of a dose that reaches the circulation, judged against a reference dose that is usually intravenous. High values mean good availability, low ones poor availability. For `CC[C@H](C)[C@H](NC(=O)[C@H](Cc1ccccc1)NC(=O)[C@H](CCC(=O)O)NC(=O)[C@H](CCC(=O)O)NC(=O)[C@H](CCC(N)=O)NC(=O)[C@H](Cc1c[nH]cn1)NC(=O)[C@@H](NC(=O)[C@H](CCCNC(=N)N)NC(=O)[C@H](CC(=O)O)NC(=O)[C@H](CCCCNC(=O)COCCOCCNC(=O)COCCOCCNC(=O)CC[C@H](NC(=O)CCCCCCCCCCCCCCCCC(=O)O)C(=O)O)NC(=O)C(C)(C)NC(=O)[C@@H](NC(=O)[C@H](CO)NC(=O)[C@H](CC(C)C)NC(=O)[C@H](CC(=O)O)NC(=O)[C@H](CO)NC(=O)[C@@H](NC(=O)[C@H](Cc1ccccc1)NC(=O)[C@@H](NC(=O)CNC(=O)[C@H](CCC(=O)O)NC(=O)C(C)(C)NC(=O)[C@@H](N)Cc1ccc(O)cc1)[C@@H](C)O)[C@@H](C)CC)[C@@H](C)CC)[C@@H](C)CC)C(=O)N[C@@H](CCC(N)=O)C(=O)N[C@@H](Cc1c[nH]c2ccccc12)C(=O)N[C@@H](CC(C)C)C(=O)N[C@@H](CC(C)C)C(=O)N[C@@H](C)C(=O)N[C@@H](CCC(N)=O)C(=O)NCC(=O)N1CCC[C@H]1C(=O)N[C@@H](CO)C(=O)N[C@@H](CO)C(=O)NCC(=O)N[C@@H](C)C(=O)N1CCC[C@H]1C(=O)N1CCC[C@H]1C(=O)N1CCC[C@H]1C(=O)N[C@@H](CO)C(N)=O` [SEQ ID NO: 35, H2N-Y-Aib-E-G-T-F-I-S-D-L-S-I-Aib-K[{AEEA}2-gGlu-C18OH]-DRIHQEEFIQWLLAQGPSSGAPPPS-NH2] (H-Y[Aib]EGTFISDLSI[Aib]K([AEEA-AEEA-γGlu-C18 diacid])DRIHQEEFIQWLLAQGPSSGAPPPS-NH2), in series [1], the “Relative purity loss” value was 8.3%. Moreover, the Soluble amount in series [2] (24 h) is greater than 9.7 mg/mL. Further, the solubility at 24 h in series [2] (pH 7.4, Soluble amount) was greater than 9500 µg/mL. The compound also registered an EC50 in series [3] greater than 10 nM. In series [5] (iv, 0.25 mg/kg), this compound had an AUC(0-t) of 12800 ng·h/mL, a Cmax of 1850 ng/mL, a clearance of 0.325 mL/min/kg and a half-life of 6.19 h. In series [5] (sc, 0.5 mg/kg), this compound showed an AUC(0-t) of 21800 ng·h/mL, a Cmax of 1400 ng/mL, a bioavailability of 86% and a half-life of 6.97 h. In series [6] (iv, 0.25 mg/kg), this compound had an AUC(0-t) of 41600 ng·h/mL, a Cmax of 5380 ng/mL, a clearance of 0.0918 mL/min/kg and a half-life of 14.5 h. In series [6] (sc, 0.5 mg/kg), this compound gave an AUC(0-t) of 49900 ng·h/mL, a Cmax of 2010 ng/mL, an F of 73% and a half-life of 14.3 h.
Take `CC[C@H](C)[C@H](NC(=O)[C@H](CCC(=O)O)NC(=O)[C@H](CCC(=O)O)NC(=O)[C@H](CCCCNC(=O)COCCOCCNC(=O)COCCOCCNC(=O)CC[C@H](NC(=O)CCCCCCCCCCCCCCCCC(=O)O)C(=O)O)NC(=O)C(C)(C)NC(=O)[C@@H](NC(=O)[C@H](CO)NC(=O)[C@H](CC(C)C)NC(=O)[C@H](CC(=O)O)NC(=O)[C@H](CO)NC(=O)[C@@H](NC(=O)[C@H](Cc1ccccc1)NC(=O)[C@@H](NC(=O)CNC(=O)[C@H](CCC(=O)O)NC(=O)C(C)(C)NC(=O)[C@@H](N)Cc1ccc(O)cc1)[C@@H](C)O)[C@@H](C)CC)[C@@H](C)CC)C(=O)N[C@@H](Cc1c[nH]cn1)C(=O)N[C@@H](CCC(N)=O)C(=O)NC(C)(C)C(=O)N[C@@H](CCC(=O)O)C(=O)N[C@@H](Cc1ccccc1)C(=O)N[C@H](C(=O)N[C@@H](CCC(=O)O)C(=O)N[C@@H](Cc1c[nH]c2ccccc12)C(=O)N[C@@H](CC(C)C)C(=O)N[C@@H](CC(C)C)C(=O)N[C@@H](C)C(=O)N[C@@H](CCC(N)=O)C(=O)NCC(=O)N1CCC[C@H]1C(=O)N[C@@H](CO)C(=O)N[C@@H](CO)C(=O)NCC(=O)N[C@@H](C)C(=O)N1CCC[C@H]1C(=O)N1CCC[C@H]1C(=O)N1CCC[C@H]1C(=O)N[C@@H](CO)C(N)=O)[C@@H](C)CC` [SEQ ID NO: 19, H2N-Y-Aib-E-G-T-F-I-S-D-L-S-I-Aib-K[{AEEA}2-gGlu-C18OH]-E-E-I-H-Q-Aib-E-F-I-E-W-L-L-A-Q-G-P-S-S-G-A-P-P-P-S-NH2] (H-Y[Aib]EGTFISDLSI[Aib]K([AEEA-AEEA-γGlu-C18 diacid])EEIHQ[Aib]EFIEWLLAQGPSSGAPPPS-NH2): the “Relative purity loss” value in series [1] was 4.3%. In series [3], this compound had an EC50 greater than 10 nM. In series [5] (iv, 0.25 mg/kg), this compound showed an AUC(0-t) of 20800 ng·h/mL, a Cmax of 3750 ng/mL, a clearance of 0.197 mL/min/kg and a half-life of 8.68 h. In series [5] (sc, 0.5 mg/kg), this compound showed an AUC(0-t) of 41100 ng·h/mL, a Cmax of 2420 ng/mL, an F of 101% and a half-life of 10.3 h. Also, in series [6] (iv, 0.25 mg/kg), the AUC(0-t) came out at 194000 ng·h/mL, the Cmax is 12800 ng/mL, the clearance was 0.0182 mL/min/kg and the half-life was 19.6 h. In series [6] (sc, 0.5 mg/kg), this compound showed an AUC(0-t) of 189000 ng·h/mL, a Cmax of 5590 ng/mL, a bioavailability of 54% and a half-life of 20.1 h.

The values are drawn from patent US20240360194A1, “New Peptides as Potent and Selective GIP Receptor Agonists” (Sanofi, priority 2021, published 2024).
